Reference: patent publication US12391674B2, “Heterocyclic compounds for the treatment of epilepsy” (OTSUKA PHARMACEUTICAL CO., LTD., priority 2018, dated 2025)
Read-outs that look alike come from different tables or passages of the source.

How the values were obtained:
DBA/2 mice = assay: Audiogenic seizure model; type: in vivo; settings: Mus musculus, read-out: Seizure suppression
Outline: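 Male and female DBA/2 mice (3 weeks old, 8/group) dosed orally at 30 mg/kg in 5% gum arabic; 1 h later exposed to 12.6 kHz, 100-110 dB tone for 1 min or until tonic seizure. Maximum seizure score (0–4) recorded; suppression rate graded A (≥90%), B (70–<90%), C (50–<70%).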

ICR mice = assay: Rotarod test (motor coordination); type: in vivo, mouse; settings: oral, rotarod 1 hour after administration
Procedure: This test is performed to evaluate the effect of the compound on the motor coordination. In this test example, the example compounds shown in Table 4 below were used as test compounds. Male ICR mice (Japan SLC, Inc., 5-6 weeks, 8 per group) were trained to remain on a fixed speed (15 rpm) rotating rod of rotarod apparatus (Muromachi Kikai Co., Ltd.) for 2 minutes. […] After 1 hour of oral administration, the mice were again placed on the rod accelerated from 4 rpm to 40 rpm over 5 minutes and the latency to fall off the rod was recorded for 200 seconds. The falling latency of the compound administration group was calculated as a relative value relative to the average value of the falling latency in the solvent administration group. Here, a coordination disorder of 25% or less was expressed as “A”, and a coordination disorder of more than 25% and 50% or less was expressed as “B”.

[1] = DBA/2 mice, oral, auditory stimulation 1 hour after administration
[2] = DBA/2 mice, oral, dose 30 mg/kg, auditory stimulation 1 hour after administration

Row | Structure (SMILES) | inhibition in vivo at 5 mg/kg (DBA/2 mice; [1]) | Motor dysfunction (ICR mice; dose 5 mg/kg) | inhibition in vivo at 30 mg/kg (DBA/2 mice; [2]) | Motor dysfunction (ICR mice; dose 30 mg/kg) | further results
1 | COc1ccc(-c2cnc(Oc3ccc(F)cc3)nc2)nn1 [Example 5] | > 90% | A (a coordination disorder of 25% or less) |  |  | 
2 | FC(F)(F)c1cn2cc(-c3cnc(Oc4ccccc4)nc3)ccc2n1 [Example 214] |  |  | > 90% | A (a coordination disorder of 25% or less) | 
3 | O=c1ccc(-c2cnc(Oc3cccnc3)nc2)n[nH]1 [Example 113] |  |  |  |  | inhibition in vivo at 10 mg/kg (DBA/2 mice; [1]): > 90%; Motor dysfunction (ICR mice; dose 10 mg/kg): A (a coordination disorder of 25% or less)
4 | O=C1CCN(c2ccc(Oc3ccccc3)nc2)C(=O)N1 [Example 320] |  |  | > 90% | B (a coordination disorder of more than 25% and 50% or less) | 
5 | Nc1cc(-c2cnc(Oc3ccccc3)nc2)ccn1 [Example 55] |  |  |  | A (a coordination disorder of 25% or less) | inhibition in vivo at 30 mg/kg (DBA/2 mice; po, 1 h): > 90%
6 | Cc1ccc(-c2cnc(Oc3ccccc3)nc2)cn1 [Example 8] |  |  |  |  | inhibition in vivo at 10 mg/kg (DBA/2 mice; [1]): > 90%; Motor dysfunction (ICR mice; dose 10 mg/kg): A (a coordination disorder of 25% or less)
7 | Fc1ccccc1Oc1ncc(-c2ccc3nccn3c2)cn1 [Example 121] | > 90% | A (a coordination disorder of 25% or less) |  |  | 
8 | FC(F)(F)c1cc(-c2cnc(Oc3ccccc3)nc2)ccn1 [Example 299] | > 90% | A (a coordination disorder of 25% or less) |  |  | 
9 | Cc1nc2cc(-c3cnc(Oc4ccccc4)nc3)ccn2c1C [Example 204] |  | A (a coordination disorder of 25% or less) | > 90% |  | 
10 | Nc1ccc(-c2cnc(Oc3ccccc3)nc2)nn1 [Example 30, 6-(2-Phenoxypyrimidin-5-Yl)Pyridazin-3-Amine] | > 90% | A (a coordination disorder of 25% or less) |  |  | 
11 | O=C1CCCCN1c1cnc(Oc2cccc(F)c2)nc1 [Example 222] |  |  | > 90% | A (a coordination disorder of 25% or less) | 
12 | O=c1ccc(-c2cnc(Oc3ccc(F)cc3)nc2)n[nH]1 [Example 97] |  |  |  |  | inhibition in vivo at 3 mg/kg (DBA/2 mice; [1]): > 90%; Motor dysfunction (ICR mice; dose 3 mg/kg): A (a coordination disorder of 25% or less)
13 | Cc1nc(N)ccc1-c1cnc(Oc2ccccc2)nc1 [Example 59] |  |  |  |  | inhibition in vivo at 3 mg/kg (DBA/2 mice; [1]): > 90%; Motor dysfunction (ICR mice; dose 3 mg/kg): A (a coordination disorder of 25% or less)
14 | COc1cccc(Oc2ccc(N3CCC(=O)NC3=O)cc2)c1 [Example 311] |  |  | 70 to 90% | A (a coordination disorder of 25% or less) | 
15 | O=c1ccc(-c2cnc(Oc3cccc(F)c3)nc2)n[nH]1 [Example 93] |  |  | > 90% | A (a coordination disorder of 25% or less) | 
16 | N#Cc1ccc(-c2cnc(Oc3ccccc3)nc2)nc1 [Example 349] |  |  |  |  | inhibition in vivo at 3 mg/kg (DBA/2 mice; [1]): > 90%; Motor dysfunction (ICR mice; dose 3 mg/kg): A (a coordination disorder of 25% or less)
17 | c1ccc(Oc2ncc(-c3ccnc4ccccc34)cn2)cc1 [Example 118, 4-(2-Phenoxypyrimidin-5-Yl) Quinoline] | 70 to 90% | A (a coordination disorder of 25% or less) |  |  | 
18 | c1ccc(Oc2ncc(-c3ccc4ncnn4c3)cn2)cc1 [Example 141] | > 90% | B (a coordination disorder of more than 25% and 50% or less) |  |  | 
19 | c1ccc(Oc2ncc(-c3ccc4cnnn4c3)cn2)cc1 [Example 173, 6-(2-Phenoxypyrimidin-5-Yl)-[1,2,3]Triazolo[1,5-a]Pyridine] | > 90% | A (a coordination disorder of 25% or less) |  |  | 
20 | Cc1cc(Oc2ccccc2)ncc1N1CCC(=O)NC1=O [Example 325] |  |  | 70 to 90% | A (a coordination disorder of 25% or less) | 
21 | FC(F)(F)Oc1cccc(Oc2ncc(-c3ccc4nccn4c3)cn2)c1 [Example 171] | > 90% | A (a coordination disorder of 25% or less) |  |  | 
22 | FC(F)(F)c1ncc2ccc(-c3cnc(Oc4ccccc4)nc3)cn12 [Example 285] | > 90% | A (a coordination disorder of 25% or less) |  |  | 
23 | c1ccc(Oc2ncc(-c3cn4ccnc4cn3)cn2)cc1 [Example 148] |  |  | > 90% | A (a coordination disorder of 25% or less) | 
24 | Cc1cn2ccc(-c3cnc(Oc4ccccc4)nc3)cc2n1 [Example 181] | 70 to 90% | A (a coordination disorder of 25% or less) |  |  | 
